Each structure is given as a SMILES string.

In general, IC50 refers to the concentration at which inhibition is half-maximal. A lower IC50 goes with inhibition by little substance.

This assay addresses norepinephrine transporter (NET) (Homo sapiens, UniProt P23975). The assay is described as follows: fluorescent substrate uptake inhibition in HEK293 cells stably expressing NET. The class given is cell-based.

norepinephrine transporter (NET), sequence (P23975 whole entry): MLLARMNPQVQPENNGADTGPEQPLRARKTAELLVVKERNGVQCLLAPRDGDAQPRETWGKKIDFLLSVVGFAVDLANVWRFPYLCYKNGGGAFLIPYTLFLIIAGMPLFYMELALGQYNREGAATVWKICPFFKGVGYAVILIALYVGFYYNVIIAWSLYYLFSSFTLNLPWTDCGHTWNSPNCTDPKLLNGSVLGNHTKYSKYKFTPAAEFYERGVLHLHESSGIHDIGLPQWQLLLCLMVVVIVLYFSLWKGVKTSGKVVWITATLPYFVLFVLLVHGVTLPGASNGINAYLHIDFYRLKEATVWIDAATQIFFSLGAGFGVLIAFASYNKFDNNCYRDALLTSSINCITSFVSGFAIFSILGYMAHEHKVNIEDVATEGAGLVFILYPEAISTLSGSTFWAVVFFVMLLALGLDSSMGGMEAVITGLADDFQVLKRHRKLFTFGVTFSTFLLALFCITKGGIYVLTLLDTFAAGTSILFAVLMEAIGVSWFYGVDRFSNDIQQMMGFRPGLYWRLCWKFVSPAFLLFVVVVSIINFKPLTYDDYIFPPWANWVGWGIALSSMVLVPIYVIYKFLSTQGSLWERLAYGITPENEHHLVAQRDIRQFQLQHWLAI

Turning to `[O-][S@@+](Cc1cncs1)[C@@H](c1ccccc1)c1cccc(Br)c1` [(S, S)-CE-158, 5-(((S)-((S)-(3-bromophenyl)(phenyl)methyl)sulfinyl)methyl)thiazole], the half-maximal inhibitory concentration (IC50) was 12 µM.

(Values after article PMC7572767 (Psychopharmacology, 2020).)
